Measured values: patent USRE48461E1, “Modulation of androgen receptor expression” (Ionis Pharmaceuticals, Inc., priority 2012, dated 2021)

Columns and labels:
VCaP cells [1] = experiment: VCaP apoptosis (Caspase-Glo 3/7); assay type: cell-based, human; conditions: complete medium, 72 hours; for Apoptosis (% untreated control): VCaP cells
Procedure: After a treatment period of 72 hours in complete medium, apoptosis of the cancer cells was measured with Caspase-Glo 3/7 assay (Promega). Results are presented in Tables 117 and 118 as percent apoptosis of the cells, relative to non-treated cells.

LMR20 cells = experiment: Proliferation of MDV3100-resistant LMR20 cells (MTT; with R1881 or DHT); assay type: cell-based, human; conditions: 5 days
Procedure, shortened: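 Cells were held in phenol red-free medium with charcoal-stripped FBS and given antisense oligonucleotides plus 1 nM R1881 or 10 nM DHT from day 1. Proliferation was read by MTT after 5 days of treatment and reported as percent inhibition against non-treated cells.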

AR mRNA = AR mRNA levels in LMR20 cells (with/without DHT or R1881); assay type: cell-based, human; conditions: with or without DHT/R1881
Procedure: LMR20 cells were plated at 1,500 cells per well in phenol red-free medium with CSS.

full length AR mRNA = experiment: Full-length AR RNA in VCaP cells (complete, CSS+DHT medium); assay type: cell-based, human; conditions: RNAiMax, 48 hrs
Procedure: Cells were plated at 10,000 cells per well. […] After an incubation period of 48 hrs, RNA levels of full length AR, the V7 variant, PSA and TMPRSS2 were measured.
After an incubation period of 48 hrs, RNA levels of full length AR, the V7 variant, PSA and TMPRSS2 were measured. The data is presented in Tables 108 expressed as percent expression of gene levels compared to the untreated control.
Cells were plated at 15,000 cells per well and cultured in CSS media for 16 hours. […] After 4 hrs, 1 nM DHT was added. […] After an incubation period of 48 hrs, RNA levels of AR, PSA and TMPRSS2 were measured.

VCaP cells [2] = experiment: VCaP cell proliferation; assay type: cell-based, human; conditions: 5 days; for Proliferation (% untreated control): VCaP cells
Procedure: After a treatment period of 5 days in complete medium or CSS+1 nM DHT medium, the proliferative capacity of the cancer cells was measured with using CellTiter 96® AQueous One or CellTiter-Glo® Solution Cell Proliferation kit (Promega), following the manufacturer's instructions. […] Treatment with ISIS oligonucleotides in CSS+DHT medium reduced the proliferative capacity to a greater extent than treatment with MVD-3100. The proliferative capacity of cells cultured in CSS medium without DHT is 12% of untreated control levels.

TMPRSS2 mRNA = experiment: Time-course TMPRSS2 expression in C4-2B cells; assay type: cell-based, human
Procedure: C4-2B cells were plated at 1,000 cells per well in complete medium. […] ISIS 549148 was included as a negative control. […] After a treatment period of 8 hours, 24 hours, and 48 hours, AR expression was measured with primer probe set hAR-LTS00943. Results are presented in Tables 70-72 as percent expression of AR, relative to non-treated cells.
Expression analysis of prostate-specific antigen (PSA) and TMPRSS2 were also analyzed. Results are presented in Tables 73-75 as percent inhibition of PSA expression and Tables 76-78 as percent inhibition of TMPRSS2 expression, relative to non-treated cells.

MDA-MB-453 tumor = experiment: Tumor volume in MDA-MB-453 breast cancer orthotopic model; assay type: in vivo, NSG mice; conditions: Study 2, MDA-MB-453 model, NSG mice, 50 mg/kg s.c. 5 days per week for 2 weeks
C4-2 cells = experiment: C4-2 cell proliferation (complete or CSS+DHT medium); assay type: cell-based, human; conditions: 5 days; for Proliferation (% untreated control): C4-2 cells
Procedure: After a treatment period of 5 days in complete medium or CSS+1 nM DHT medium, the proliferative capacity of the cancer cells was measured with using CellTiter 96® AQueous One Solution or CellTiter-Glo® Cell Proliferation kit (Promega), following the manufacturer's instructions. […] The proliferative capacity of cells cultured in CSS medium without DHT is 17% of untreated control levels.

[3] = complete medium or CSS+1 nM DHT

TTGATTTAATGGTTGC [ISIS 560131] (MOE and (S)-cEt gapmer chemistry, further chemistry not given here) [targets intron 1]
Apoptosis (% untreated control) (VCaP cells [1]; 1.34 nM): 189 % untreated control
Apoptosis (% untreated control) (VCaP cells [1]; 4.0 nM): 253 % untreated control
Apoptosis (% untreated control) (VCaP cells [1]; 13.4 nM): 356 % untreated control
Apoptosis (% untreated control) (VCaP cells [1]; 40 nM): 262 % untreated control
apoptosis of VCaP cells (VCaP cells [1]): increased apoptosis of the cells in a dose dependent compared to the control
Percent inhibition of LMR20 cell proliferation (LMR20 cells; CSS + DHT, ASO 0.04 μM): 0%
Percent inhibition of LMR20 cell proliferation (LMR20 cells; CSS + DHT, ASO 0.20 μM): 13%
Percent inhibition of LMR20 cell proliferation (LMR20 cells; CSS + DHT, ASO 1.0 μM): 57%
Percent inhibition of LMR20 cell proliferation (LMR20 cells; CSS + DHT, ASO 5.0 μM): 71%
Percent inhibition of LMR20 cell proliferation (LMR20 cells; CSS + R1881, ASO 0.04 μM): 0%
Percent inhibition of LMR20 cell proliferation (LMR20 cells; CSS + R1881, ASO 0.20 μM): 13%
Percent inhibition of LMR20 cell proliferation (LMR20 cells; CSS + R1881, ASO 1.0 μM): 55%
Percent inhibition of LMR20 cell proliferation (LMR20 cells; CSS + R1881, ASO 5.0 μM): 70%
Percent inhibition of LMR20 cell proliferation (LMR20 cells; CSS, ASO 0.04 μM): 0%
Percent inhibition of LMR20 cell proliferation (LMR20 cells; CSS, ASO 0.20 μM): 0%
Percent inhibition of LMR20 cell proliferation (LMR20 cells; CSS, ASO 1.0 μM): 9%
Percent inhibition of LMR20 cell proliferation (LMR20 cells; CSS, ASO 5.0 μM): 16%
LMR20 cell proliferation (LMR20 cells; in the presence of R1881 or DHT, 0.04-5.0 μM): significantly inhibited MDV3100-resistant prostate cancer cell proliferation in a dose dependent manner more extensively than ISIS 554221
AR mRNA levels in LMR20 cells (AR mRNA): reduced AR mRNA levels in LMR20 cells, treated with or without either AR agonist, in a dose dependent manner relative to the baseline
Percent inhibition of full-length AR (full length AR mRNA; CSS medium, 1.34 nM): 12%
Percent inhibition of full-length AR (full length AR mRNA; CSS medium, 4.0 nM): 16%
Percent inhibition of full-length AR (full length AR mRNA; CSS medium, 13.4 nM): 37%
Percent inhibition of full-length AR (full length AR mRNA; CSS medium, 40 nM): 38%
Percent inhibition of full-length AR (full length AR mRNA; complete medium, 1.34 nM): 0%
Percent inhibition of full-length AR (full length AR mRNA; complete medium, 4.0 nM): 59%
Percent inhibition of full-length AR (full length AR mRNA; complete medium, 13.4 nM): 77%
Percent inhibition of full-length AR (full length AR mRNA; complete medium, 40 nM): 84%
Proliferation (% untreated control) (VCaP cells [2]; CSS + DHT medium, 1.34 nM): 95 % untreated control
Proliferation (% untreated control) (VCaP cells [2]; CSS + DHT medium, 4.0 nM): 65 % untreated control
Proliferation (% untreated control) (VCaP cells [2]; CSS + DHT medium, 13.4 nM): 42 % untreated control
Proliferation (% untreated control) (VCaP cells [2]; CSS + DHT medium, 40 nM): 37 % untreated control
Proliferation (% untreated control) (VCaP cells [2]; complete medium, 1.34 nM): 98 % untreated control
Proliferation (% untreated control) (VCaP cells [2]; complete medium, 4.0 nM): 66 % untreated control
Proliferation (% untreated control) (VCaP cells [2]; complete medium, 13.4 nM): 53 % untreated control
Proliferation (% untreated control) (VCaP cells [2]; complete medium, 40 nM): 48 % untreated control
proliferation of VCaP cells (VCaP cells [2]; [3]): reduced proliferation of the cells in a dose dependent compared to the control
Percent inhibition of TMPRSS2 expression compared to the control group in 8 hours (TMPRSS2 mRNA; 0.04 μM): 0%
Percent inhibition of TMPRSS2 expression compared to the control group in 24 hours (TMPRSS2 mRNA; 0.04 μM): 35%
Percent inhibition of TMPRSS2 expression compared to the control group in 48 hours (TMPRSS2 mRNA; 0.04 μM): 46%
Percent inhibition of TMPRSS2 expression compared to the control group in 8 hours (TMPRSS2 mRNA; 0.2 μM): 0%
Percent inhibition of TMPRSS2 expression compared to the control group in 24 hours (TMPRSS2 mRNA; 0.2 μM): 57%
Percent inhibition of TMPRSS2 expression compared to the control group in 48 hours (TMPRSS2 mRNA; 0.2 μM): 71%
Percent inhibition of TMPRSS2 expression compared to the control group in 8 hours (TMPRSS2 mRNA; 1 μM): 6%
Percent inhibition of TMPRSS2 expression compared to the control group in 24 hours (TMPRSS2 mRNA; 1 μM): 66%
Percent inhibition of TMPRSS2 expression compared to the control group in 48 hours (TMPRSS2 mRNA; 1 μM): 77%
Percent inhibition of TMPRSS2 expression compared to the control group in 8 hours (TMPRSS2 mRNA; 5.0 μM): 0%
Percent inhibition of TMPRSS2 expression compared to the control group in 24 hours (TMPRSS2 mRNA; 5.0 μM): 67%
Percent inhibition of TMPRSS2 expression compared to the control group in 48 hours (TMPRSS2 mRNA; 5.0 μM): 76%
TMPRSS2 expression (TMPRSS2 mRNA; time course): reduced PSA and TMPRSS2 expression in the cells relative to the control set at the 24 hr and 48 hr time points
Tumor volumes (MDA-MB-453 tumor; Day 0): 144
Tumor volumes (MDA-MB-453 tumor; Day 8): 261
Tumor volumes (MDA-MB-453 tumor; Day 13): 243
Tumor volumes (MDA-MB-453 tumor; Day 20): 204
Tumor volumes (MDA-MB-453 tumor; Day 23): 232
Tumor volumes (MDA-MB-453 tumor; Day 27): 233
Tumor volumes (MDA-MB-453 tumor; Day 29): 258
Proliferation (% untreated control) (C4-2 cells; CSS + DHT medium, 0.04 μM): 106 % untreated control
Proliferation (% untreated control) (C4-2 cells; CSS + DHT medium, 0.2 μM): 94 % untreated control
Proliferation (% untreated control) (C4-2 cells; CSS + DHT medium, 1 μM): 47 % untreated control
Proliferation (% untreated control) (C4-2 cells; CSS + DHT medium, 5.0 μM): 31 % untreated control
Proliferation (% untreated control) (C4-2 cells; complete medium, 0.04 μM): 104 % untreated control
Proliferation (% untreated control) (C4-2 cells; complete medium, 0.2 μM): 82 % untreated control
Proliferation (% untreated control) (C4-2 cells; complete medium, 1 μM): 70 % untreated control
Proliferation (% untreated control) (C4-2 cells; complete medium, 5.0 μM): 51 % untreated control
proliferation of C4-2 cells (C4-2 cells; [3]): reduced proliferation of the cells in a dose dependent manner compared to the control
